In patent US10576064B2, “Spiro[3H-indole-3,2′-pyrrolidin]-2(1H)-one compounds and derivatives as MDM2-P53 inhibitors” (Boehringer Ingelheim International GmbH, priority 2014, dated 2020):

Each molecule was assayed against p53-MDM2 interaction (GST-MDM2 protein aa 23-117 / biotinylated p53 wt peptide) (Homo sapiens (Human), UniProt Q00987) (assay: MDM2-p53 Inhibition AlphaScreen). Conditions: 20 nM GST-MDM2 (aa 23-117), 20 nM biotinylated p53 wt peptide.
Assay type: biochemical
Text: MDM2-p53 Inhibition AlphaScreen

SMILES	IC50 [nM]
CC1CC1CN1[C@H]2CCN(c3ccc(S(C)(=O)=O)cc3)C(=O)[C@H]2[C@H](c2cccc(Cl)c2F)[C@]12C(=O)Nc1cc(Cl)ccc12 (stereo partly drawn) [Compound I-78]	120
NC(=O)c1ccc(N2CC[C@H]3[C@@H](C2=O)[C@H](c2cccc(Cl)c2F)[C@]2(C(=O)Nc4cc(Cl)ccc42)N3CC2CC2)cc1 [Compound I-268]	26
O=C(O)c1ccc(CN2CC[C@H]3[C@@H](C2=O)[C@H](c2cccc(Cl)c2F)[C@]2(C(=O)Nc4cc(Cl)ccc42)N3CC2CC2)cc1 [Compound I-208]	210
CCOc1cccc(CN2[C@H]3CN(Cc4ccc(C(=O)O)cc4)C(=O)[C@H]3[C@H](c3cccc(Cl)c3F)[C@]23C(=O)Nc2cc(Cl)ccc23)c1 [Compound I-246]	17
NC(=O)c1ccc(N2C[C@H]3[C@@H](C2=O)[C@H](c2ccnc(Cl)c2F)[C@]2(C(=O)Nc4cc(Cl)ccc42)N3CC2CC2)cc1 [Compound I-288]	8
O=C(O)CNc1ccc(N2CC[C@H]3[C@@H](C2=O)[C@H](c2cccc(Cl)c2F)[C@]2(C(=O)Nc4cc(Cl)ccc42)N3CC2CC2)cc1 [Compound I-306]	67
CCOc1cccc(CN2[C@H]3CNC(=O)[C@H]3[C@H](c3cccc(Cl)c3F)[C@]23C(=O)Nc2cc(Cl)ccc23)c1 [Compound I-43]	8
CS(=O)(=O)Nc1ccc(N2CC[C@H]3[C@@H](C2=O)[C@H](c2cccc(Cl)c2F)[C@]2(C(=O)Nc4cc(Cl)ccc42)N3CC2CC2)cc1 [Compound I-300]	98
COC(=O)c1ccc(N2CC[C@H]3[C@@H](C2=O)[C@H](c2cccc(Cl)c2F)[C@]2(C(=O)Nc4cc(Cl)ccc42)N3CC2CC2C)c(F)c1 (stereo partly drawn) [Compound I-84]	1180
CN(C)C(=O)c1ccc(N2C[C@H]3[C@@H](C2=O)[C@H](c2cccc(Cl)c2F)[C@]2(C(=O)Nc4cc(Cl)ccc42)N3CC2CC2)cc1 [Compound I-286]	10
CNC(=O)c1ccc(N2C[C@H]3[C@@H](C2=O)[C@H](c2cccc(Cl)c2F)[C@]2(C(=O)Nc4cc(Cl)ccc42)N3CC2CC2)cc1 [Compound I-287]	8
O=C1NCC[C@H]2[C@@H]1[C@H](c1cc(Br)cc(Cl)c1F)[C@]1(C(=O)Nc3cc(Cl)ccc31)N2CC1CC1 [Compound I-11]	462
CON(C)C(=O)c1ccc(N2CC[C@H]3[C@@H](C2=O)[C@H](c2cccc(Cl)c2F)[C@]2(C(=O)Nc4cc(Cl)ccc42)N3CC2CC2)cc1 [Compound I-278]	33
O=C(O)c1ccc(-c2cc(Cl)c(F)c([C@H]3[C@@H]4C(=O)NCC[C@@H]4N(CC4CC4)[C@@]34C(=O)Nc3cc(Cl)ccc34)c2)cc1 [Compound I-290]	36
CC(=O)Nc1ccc(N2CC[C@H]3[C@@H](C2=O)[C@H](c2cccc(Cl)c2F)[C@]2(C(=O)Nc4cc(Cl)ccc42)N3CC2CC2)cc1 [Compound I-296]	58
COC(=O)c1ccc(N2CC[C@H]3[C@@H](C2=O)[C@H](c2cccc(Cl)c2F)[C@]2(C(=O)Nc4cc(Cl)ccc42)N3CC2CC2C)c(OC)c1 (stereo partly drawn) [Compound I-82]	1020
O=C1NC[C@H]2[C@@H]1[C@H](c1cccc(Cl)c1F)[C@]1(C(=O)Nc3cc(Cl)ccc31)N2CC1CC1 [Compound I-40]	33
CCOc1cccc(CN2[C@H]3CCNC(=O)[C@H]3[C@H](c3cccc(Cl)c3)[C@]23C(=O)Nc2cc(Cl)ccc23)c1 [Compound I-7]	30
COCCN1[C@H]2CN(c3ccc(C(=O)O)cc3)C(=O)[C@H]2[C@H](c2cccc(Cl)c2F)[C@]12C(=O)Nc1cc(Cl)ccc12 [Compound I-224]	17
CN(O)C(=O)c1ccc(N2CC[C@H]3[C@@H](C2=O)[C@H](c2cccc(Cl)c2F)[C@]2(C(=O)Nc4cc(Cl)ccc42)N3CC2CC2)cc1 [Compound I-276]	46
O=C1NCC[C@H]2[C@@H]1[C@H](c1cccc(Cl)c1F)[C@]1(C(=O)Nc3cc(Cl)ccc31)N2CC1CC1 [Compound I-2]	112
O=C(O)c1ccc(N2C[C@@H]3[C@H](C2=O)[C@@H](c2cccc(Cl)c2F)[C@@]2(C(=O)Nc4cc(Cl)ccc42)N3CC2CCCC2)cc1 [Compound I-236]	488
O=C1NCC[C@H]2[C@@H]1[C@H](c1cccc(Cl)c1F)[C@]1(C(=O)Nc3cc(Cl)ccc31)N2CC1CCC1 [Compound I-19]	240
CCOc1cccc(CN2[C@H]3CCNC(=O)[C@H]3[C@H](c3cccc(Cl)c3F)[C@]23C(=O)Nc2cc(Cl)ccc23)c1 [Compound I-5]	17
O=C(O)c1ccc(N2C[C@H]3[C@@H](C2=O)[C@H](c2cccc(Cl)c2F)[C@]2(C(=O)Nc4cc(Cl)ccc42)N3CC2CC2)cc1 [Compound I-216]	6
CC(C)(C)CN1[C@H]2CCN(c3ccc(C(=O)O)cc3)C(=O)[C@H]2[C@H](c2cccc(Cl)c2F)[C@]12C(=O)Nc1cc(Cl)ccc12 [Compound I-202]	48
O=C(O)c1ccc(N2CC[C@H]3[C@@H](C2=O)[C@H](c2cccc(Cl)c2F)[C@]2(C(=O)Nc4cc(Cl)ccc42)N3CC2CC2)c([N+](=O)[O-])c1 [Compound I-192]	40

SMILES	IC50 [nM]
CC(C)(C)CN1[C@H]2CCN(c3ccc(S(C)(=O)=O)cc3)C(=O)[C@H]2[C@H](c2cccc(Cl)c2F)[C@]12C(=O)Nc1cc(Cl)ccc12 [Compound I-74]	342
O=C1NCC[C@H]2[C@@H]1[C@H](c1cccc(Cl)c1)[C@]1(C(=O)Nc3cc(Cl)ccc31)N2CC1CC1 [Compound I-3]	263
CCOc1cccc(CN2[C@H]3CCNC(=O)[C@H]3[C@H](c3cccc(Cl)c3F)[C@]23C(=O)Nc2nc(Cl)ccc23)c1 [Compound I-9]	30
COc1cc(N2C[C@H]3[C@@H](C2=O)[C@H](c2cccc(Cl)c2F)[C@]2(C(=O)Nc4cc(Cl)ccc42)N3CC2CC2)ccc1C(=O)O [Compound I-258]	4
COc1cc(C(=O)O)ccc1N1C[C@H]2[C@@H](C1=O)[C@H](c1cccc(Cl)c1F)[C@]1(C(=O)Nc3cc(Cl)ccc31)N2CC1CC1 [Compound I-219]	31
COc1cc(N2C[C@H]3[C@@H](C2=O)[C@H](c2cccc(Br)c2F)[C@]2(C(=O)Nc4cc(Cl)ccc42)N3CC2CC2)ccc1C(=O)O [Compound I-250]	9
COc1cc(C(=O)O)ccc1N1CC[C@H]2[C@@H](C1=O)[C@H](c1cccc(Cl)c1)[C@]1(C(=O)Nc3cc(Cl)ccc31)N2CC1CC1 [Compound I-181]	92
CNS(=O)(=O)c1ccc(N2CC[C@H]3[C@@H](C2=O)[C@H](c2cccc(Cl)c2F)[C@]2(C(=O)Nc4cc(Cl)ccc42)N3CC2CC2)cc1 [Compound I-80]	93
CCOc1cccc(CN2[C@H]3CCN(c4ccc(C(=O)O)cc4[N+](=O)[O-])C(=O)[C@H]3[C@H](c3cccc(Cl)c3F)[C@]23C(=O)Nc2cc(Cl)ccc23)c1 [Compound I-188]	16
COC(=O)c1ccc(N2C[C@H]3[C@@H](C2=O)[C@H](c2cccc(Cl)c2F)[C@]2(C(=O)Nc4cc(Cl)ccc42)N3CC2CC2)c(OC)c1 [Compound I-125]	347
O=C(NO)c1ccc(N2C[C@H]3[C@@H](C2=O)[C@H](c2cccc(Cl)c2F)[C@]2(C(=O)Nc4cc(Cl)ccc42)N3CC2CC2)cc1 [Compound I-285]	8
CCOc1cccc(CN2[C@H]3CN(c4ccc(C(N)=O)cc4)C(=O)[C@H]3[C@H](c3cccc(Cl)c3F)[C@]23C(=O)Nc2cc(Cl)ccc23)c1 [Compound I-284]	3
O=C(O)c1ccc(N2C[C@@H]3[C@H](C2=O)[C@@H](c2cccc(Cl)c2F)[C@@]2(C(=O)Nc4cc(Cl)ccc42)N3CC2CCC2)cc1 [Compound I-223]	271
O=C1NC[C@H]2[C@@H]1[C@H](c1cccc(Cl)c1F)[C@]1(C(=O)Nc3cc(Cl)ccc31)N2CC1CC1 [Compound I-39]	32
O=C(O)c1ccc(N2C[C@@H]3[C@H](C2=O)[C@@H](c2cccc(Cl)c2F)[C@@]2(C(=O)Nc4cc(Cl)ccc42)N3CC2CC2)cc1 [Compound I-218]	460
CC1CC1CN1[C@H]2CCNC(=O)[C@H]2[C@H](c2cccc(Cl)c2F)[C@]12C(=O)Nc1cc(Cl)ccc12 (stereo partly drawn) [Compound I-13]	272
O=C(O)c1ccc(N2C[C@H]3[C@@H](C2=O)[C@H](c2cccc(Cl)c2F)[C@]2(C(=O)Nc4cc(Cl)ccc42)N3CC2CC(F)(F)C2)cc1 [Compound I-230]	5
CN(C)C(=O)c1ccc(N2CC[C@H]3[C@@H](C2=O)[C@H](c2cccc(Cl)c2F)[C@]2(C(=O)Nc4cc(Cl)ccc42)N3CC2CC2)cc1 [Compound I-272]	25
COc1cc(C(=O)O)ccc1N1CC[C@H]2[C@@H](C1=O)[C@H](c1cccc(Cl)c1F)[C@]1(C(=O)Nc3cc(Cl)ccc31)N2CC1CCC1 [Compound I-200]	134
O=C1[C@@H]2[C@H](CCN1c1ccncc1)N(CC1CC1)[C@@]1(C(=O)Nc3cc(Cl)ccc31)[C@H]2c1cccc(Cl)c1F [Compound I-92]	193
O=C(O)c1ccc(N2CC[C@H]3[C@@H](C2=O)[C@H](c2cccc(Cl)c2)[C@]2(C(=O)Nc4cc(Cl)ccc42)N3CC2CC2)cc1 [Compound I-177]	16
CCOc1cccc(CN2[C@H]3CN(Cc4ccc(C(=O)O)cc4)C(=O)[C@H]3[C@H](c3cccc(Cl)c3F)[C@@]23C(=O)Nc2cc(Cl)ccc23)c1 [Compound I-248]	485
CC(C)(C)CN1[C@H]2CCN(Cc3ccc(C(=O)O)cc3)C(=O)[C@H]2[C@H](c2cccc(Cl)c2F)[C@]12C(=O)Nc1cc(Cl)ccc12 [Compound I-210]	158
Cc1cc(N2CC[C@H]3[C@@H](C2=O)[C@H](c2cccc(Cl)c2F)[C@]2(C(=O)Nc4cc(Cl)ccc42)N3CC2CC2)cc(C)c1C(=O)O [Compound I-206]	46
N#Cc1ccc(N2CC[C@H]3[C@@H](C2=O)[C@H](c2cccc(Cl)c2F)[C@]2(C(=O)Nc4cc(Cl)ccc42)N3CC2CC2)cc1 [Compound I-86]	159
O=C(O)c1ccc(N2C[C@H]3[C@@H](C2=O)[C@H](c2cccc(Br)c2F)[C@]2(C(=O)Nc4cc(Cl)ccc42)N3CC2CC2)cc1 [Compound I-252]	9
COC(=O)c1ccc(N2CC[C@H]3[C@@H](C2=O)[C@H](c2cccc(Cl)c2F)[C@]2(C(=O)Nc4cc(Cl)ccc42)N3CC2CC2C)cc1 (stereo partly drawn) [Compound I-69]	447
